Molecules are shown by their SMILES.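 A five-concentration, 48-hour dose response in 96-well plates underlies each endpoint, interpolated linearly between surrounding concentrations. At the GI50, growth is halved. At the TGI there is no net growth.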

Data on eleven compounds can be found in PubChem BioAssay (NCI).

Holding throughout (assay): NCI tumour cell line growth inhibition, 48 h
For assay [1], the system named is A498 renal.
The test system of assay [2] is HCT-116 colon.
The subject of assay [3] is HCT-15 colon.
Assay [4] concerns HT29 colon.
In assay [5] the test system is K-562 leukemia.
Assay [6] has as its system NCI-H460 lung.
Assay [7] has as its system OVCAR-3 ovarian.
Assay [8] has as its system OVCAR-5 ovarian.
The subject of assay [9] is RPMI-8226 leukemia.
For assay [10], the system named is RXF 393 renal.

Take `COc1ccc(C(=O)c2nc3ccccc3n2CC(=O)c2ccc(Cl)cc2)cc1`: the GI50 in assay [1] is 4.07 µM; in [2], 3.15 µM; in assay [3], 2 µM; in assay [4], 2.82 µM; in assay [5] it was 0.585 µM; in [6], 7.34 µM. The GI50 in [7] is 2.55 µM; in [8], above 82.3 µM; in assay [9], 1.71 µM; in assay [10] it was 2.6 µM. Also, the TGI in [1] is 39.4 µM; in assay [2] it was above 100 µM; in [3], above 100 µM; in assay [4] it was above 100 µM; in [5], above 100 µM; in [6], above 100 µM. Also, the TGI in assay [7] was above 20.4 µM; in assay [8] it was above 100 µM; in [9] it was above 23.9 µM; in [10], above 24.6 µM.

Turning to `CSc1ccc(N(C)c2nc(C)nc3c2CCC3)cc1`, the GI50 in [1], in [3], in assay [4], in assay [5], in assay [6] and in assay [7] was below 0.01 µM throughout. For the same compound, the GI50 in assay [8] was 1.23 µM; in assay [9], below 0.01 µM; in [10], below 0.01 µM. Further, the TGI was below 0.01 µM in assay [1]; above 100 µM in [3]; 11.1 µM in assay [4]; above 100 µM in [5]; 19 µM in assay [6]; below 0.01 µM in assay [7]. For the same compound, the figures for the TGI in assay [8], in assay [9] and in [10] were above 100 µM, 25 µM and above 100 µM, respectively.

In the case of `C[C@]12C/C(=C/O)C(=O)C(O)=C1CC[C@@H]1C2CC[C@@]2(C)C1CC[C@@H]2O` (some centres not stated), the TGI in [1] was found to be 65.1 µM; in assay [3], 61.5 µM; in assay [4], 65.1 µM; in assay [5], 82.2 µM; in assay [6], 48.1 µM; in assay [7], 44.4 µM. For the same compound, the TGI in assay [8] is 46.1 µM; in assay [9], 64.8 µM; in assay [10] it was 36.3 µM.

For `O=C1[C@H]2ON(c3ccccc3)C(c3ccco3)[C@H]2C(=O)N1c1ccc(Cc2ccc(N3C(=O)[C@@H]4ON(c5ccccc5)C(c5ccco5)[C@@H]4C3=O)cc2)cc1` (some centres not stated), the TGI in [1], in assay [3], in [4], in assay [5], in assay [6] and in [7] was above 100 µM each time. Also, the TGI in assay [8], in assay [9] and in assay [10] was above 100 µM throughout.

Turning to `CC(=O)[CH-]C(=O)c1ccccc1.CC(=O)[CH-]C(=O)c1ccccc1.CC1(C)OCC(C2OC3OC(C)(C)OC3C2[O-])O1.CC[O-].[Ti+4]` (configuration not stated), the GI50 in [1] was 15.3 µM; in [2], 14.9 µM; in [3] it was 25.9 µM; in assay [4] it was 13.7 µM; in [5], 15.3 µM; in [6], 10.8 µM. Moreover, the GI50 in assay [7] is 11.7 µM; in assay [8], 14.2 µM; in assay [10], 3.36 µM. For the same compound, the TGI in assay [1] was found to be 28.6 µM; in assay [2], 28.1 µM; in [3], 68 µM; in assay [4] it was 29.3 µM; in [5] it was 62.6 µM; in assay [6], 24.8 µM. Further, the TGI was 30.2 µM in [7], 31.5 µM in assay [8] and 14.9 µM in assay [10].

On to `Nc1ccccc1C(=O)C(Br)C(Br)c1ccc2c(c1)OCO2` (configuration not stated), for which the TGI is 60.7 µM in assay [1]; 31.1 µM in assay [2]; 48.1 µM in assay [3]; 34.4 µM in assay [4]; above 100 µM in assay [5]; 39.2 µM in assay [6]. The TGI in [7] was 36.1 µM; in [9] it was above 100 µM; in assay [10], 49.9 µM.

Turning to `CCCCCCC(C)CCCCCCCCCCC(=O)O` (configuration not stated), the TGI in [1], in assay [2], in assay [4], in assay [5], in [6] and in [7] was above 100 µM throughout. Further, the TGI in [8], in assay [9] and in [10] was above 100 µM throughout.

On to `CC1(C)CC(=O)C(CC2C(=O)c3ccccc3C2=O)C(=O)C1`, for which the TGI in assay [1], in assay [2], in assay [3], in assay [4], in assay [5] and in [6] was above 100 µM each time. The TGI in assay [7], in assay [8] and in [10] was above 100 µM each time.

For `CN1c2ccccc2SC2C(c3ccccc3)=NOC21` (configuration not stated), the TGI in assay [1] was above 100 µM; in [2], 60.7 µM; in [3], 43.7 µM; in [4], above 100 µM; in [5] it was above 100 µM; in [6] it was above 100 µM. Further, the TGI in [7], in [8] and in assay [10] was above 100 µM each time.

For the compound `O=C1/C(=C/c2ccc([N+](=O)[O-])cc2)COc2ccc(O)cc21`, the GI50 was 4.52 µM in assay [1]; 1.67 µM in [2]; 2.24 µM in assay [3]; 2.28 µM in assay [5]; 9.03 µM in assay [6]; 3.26 µM in assay [7]. For the same compound, the GI50 is 5.97 µM in [8], 0.326 µM in assay [9] and 2.45 µM in [10]. For the same compound, the TGI was above 100 µM in [1]; 3.43 µM in assay [2]; 7.61 µM in assay [3]; above 100 µM in [5]; above 100 µM in assay [6]; 11.8 µM in assay [7]. For the same compound, the figures for the TGI in assay [8], in [9] and in [10] were 33.2 µM, 1.65 µM and 17.7 µM, respectively.

In the case of `O=C(CC1(O)C(=O)Nc2c(Cl)ccc(Cl)c21)c1ccc(Cl)cc1Cl` (configuration not stated), the TGI in assay [1] was 42.5 µM; in [2], 33.1 µM; in [3] it was above 100 µM; in [4] it was 33.3 µM; in assay [6], 38.3 µM; in assay [7], 30.9 µM. Moreover, the TGI in [8] worked out at 35.6 µM; in [9], 43.7 µM; in assay [10] it was 42.3 µM.
